Experimental data: PubChem BioAssay (NCI)
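How tested: cells in 96-well plates exposed to compound for 48 hours at five concentrations. GI50 marks 50% less growth. The concentration for full growth arrest is given as TGI.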

Experiments:
Experiment in all cases: DTP human tumour cell line panel, 48 h
[1] = test system: 786-0 renal
[2] = test system: A498 renal
[3] = test system: A549 NSCLC
[4] = test system: ACHN renal
[5] = test system: BT-549 breast
[6] = test system: CAKI-1 renal
[7] = test system: CCRF-CEM leukemia
[8] = test system: COLO 205 colon
[9] = test system: DU-145 prostate
[10] = test system: HCC-2998 colon
[11] = test system: HCT-116 colon
[12] = test system: HCT-15 colon
[13] = test system: HL-60(TB) leukemia
[14] = test system: HOP-62 NSCLC
[15] = test system: HOP-92 NSCLC
[16] = test system: HS 578T breast
[17] = test system: IGROV1 ovarian
[18] = test system: KM12 colon
[19] = test system: LOX IMVI melanoma
[20] = test system: M14 melanoma
[21] = test system: MCF7 breast
[22] = test system: MDA-MB-231 breast
[23] = test system: MDA-MB-435
[24] = test system: MOLT-4 leukemia
[25] = test system: NCI-H226 lung
[26] = test system: NCI-H23 lung
[27] = test system: NCI-H460 lung
[28] = test system: NCI-H522 lung
[29] = test system: NCI/ADR-RES ovarian
[30] = test system: OVCAR-3 ovarian
[31] = test system: OVCAR-4 ovarian
[32] = test system: OVCAR-5 ovarian
[33] = test system: OVCAR-8 ovarian
[34] = test system: PC-3 prostate
[35] = test system: RPMI-8226 leukemia
[36] = test system: RXF 393 renal
[37] = test system: SF-268 CNS
[38] = test system: SF-295 CNS
[39] = test system: SF-539 CNS
[40] = test system: SK-MEL-2 melanoma
[41] = test system: SK-MEL-28 melanoma
[42] = test system: SK-MEL-5 melanoma
[43] = test system: SK-OV-3 ovarian
[44] = test system: SN12C renal
[45] = test system: SNB-19 CNS
[46] = test system: SNB-75 CNS
[47] = test system: SR leukemia
[48] = test system: SW-620 colon
[49] = test system: T-47D breast
[50] = test system: TK-10 renal
[51] = test system: U251 CNS
[52] = test system: UACC-257 melanoma
[53] = test system: UACC-62 melanoma
[54] = test system: UO-31 renal

## C/C(=C\CCc1ccoc1)CC/C=C(\C)CCCN1CCOCC1
[1]
  GI50: 1.83 µM
  TGI: 4.18 µM
[2]
  GI50: 4.48 µM
  TGI: 19.7 µM
[3]
  GI50: 9.08 µM
  TGI: 23.2 µM
[4]
  GI50: 8.24 µM
  TGI: 24.1 µM
[5]
  GI50: 1.88 µM
  TGI: 8.74 µM
[6]
  GI50: 3.65 µM
  TGI: 14.9 µM
[7]
  GI50: 2.79 µM
  TGI: 11 µM
[8]
  GI50: 3.15 µM
  TGI: 12.4 µM
[9]
  GI50: 10.3 µM
  TGI: 22.3 µM
[10]
  GI50: 10.9 µM
  TGI: 23.8 µM
[11]
  GI50: 2.27 µM
  TGI: 10.2 µM
[12]
  GI50: 2.98 µM
  TGI: 11.8 µM
[13]
  GI50: 2.5 µM
  TGI: 5.5 µM
[14]
  GI50: 12.2 µM
  TGI: 25.6 µM
[15]
  GI50: 1.43 µM
  TGI: 5.49 µM
[16]
  GI50: 4.07 µM
  TGI: 24.7 µM
[17]
  GI50: 15.4 µM
  TGI: 36.8 µM
[18]
  GI50: 4.11 µM
  TGI: 16.1 µM
[19]
  GI50: 6.91 µM
  TGI: 20.7 µM
[20]
  GI50: 1.65 µM
  TGI: 3.42 µM
[21]
  GI50: 2.71 µM
  TGI: 11.2 µM
[22]
  GI50: 2.9 µM
  TGI: 12.2 µM
[23]
  GI50: 3.48 µM
  TGI: 13.7 µM
[24]
  GI50: 4.2 µM
  TGI: 16.9 µM
[25]
  GI50: 10.5 µM
  TGI: 30.7 µM
[26]
  GI50: 6.03 µM
  TGI: 21 µM
[27]
  GI50: 4.79 µM
  TGI: 17.8 µM
[28]
  GI50: 10.9 µM
  TGI: 26.8 µM
[29]
  GI50: 12.3 µM
  TGI: 27.5 µM
[30]
  GI50: 3.73 µM
  TGI: 15.3 µM
[31]
  GI50: 3.21 µM
  TGI: 14.3 µM
[32]
  GI50: 7.17 µM
  TGI: 21.3 µM
[33]
  GI50: 13.7 µM
  TGI: 28 µM
[34]
  GI50: 2.02 µM
  TGI: 10.5 µM
[35]
  GI50: 1.88 µM
  TGI: 4.99 µM
[36]
  GI50: 9.17 µM
  TGI: 23.2 µM
[37]
  GI50: 7.03 µM
  TGI: 21.7 µM
[38]
  GI50: 3.95 µM
  TGI: 16.1 µM
[39]
  GI50: 5.49 µM
  TGI: 19.7 µM
[40]
  GI50: 12.2 µM
  TGI: 25.9 µM
[41]
  GI50: 10.3 µM
  TGI: 24 µM
[42]
  GI50: 1.7 µM
  TGI: 3.52 µM
[43]
  GI50: 7.06 µM
  TGI: 19.7 µM
[44]
  GI50: 6.83 µM
  TGI: 21 µM
[45]
  GI50: 9.27 µM
  TGI: 23.6 µM
[46]
  GI50: 3.15 µM
  TGI: 16.3 µM
[47]
  GI50: 3.12 µM
  TGI: 9.69 µM
[48]
  GI50: 3.43 µM
  TGI: 14.6 µM
[49]
  GI50: 3.62 µM
  TGI: 13.1 µM
[50]
  GI50: 11 µM
  TGI: 23.8 µM
[51]
  GI50: 6.29 µM
  TGI: 19.1 µM
[52]
  GI50: 9.17 µM
  TGI: 21.2 µM
[53]
  GI50: 5.02 µM
  TGI: 18.2 µM
[54]
  GI50: 10.3 µM
  TGI: 24.6 µM
